From patent US11780845B2 (Relay Therapeutics, Inc., priority 2019, dated 2023)

Columns and labels:
[1] = tested on: SNU-16; assay: Cell SNU-16 assay; type: cell-based
[2] = target: FGFR2 (Homo sapiens (Human), UniProt P21802); assay: Biochemical FGFR2 Caliper assay
[3] = Homo sapiens, SNU-16, SNU-16 cells

FGFR2, sequence (P21802 22-821): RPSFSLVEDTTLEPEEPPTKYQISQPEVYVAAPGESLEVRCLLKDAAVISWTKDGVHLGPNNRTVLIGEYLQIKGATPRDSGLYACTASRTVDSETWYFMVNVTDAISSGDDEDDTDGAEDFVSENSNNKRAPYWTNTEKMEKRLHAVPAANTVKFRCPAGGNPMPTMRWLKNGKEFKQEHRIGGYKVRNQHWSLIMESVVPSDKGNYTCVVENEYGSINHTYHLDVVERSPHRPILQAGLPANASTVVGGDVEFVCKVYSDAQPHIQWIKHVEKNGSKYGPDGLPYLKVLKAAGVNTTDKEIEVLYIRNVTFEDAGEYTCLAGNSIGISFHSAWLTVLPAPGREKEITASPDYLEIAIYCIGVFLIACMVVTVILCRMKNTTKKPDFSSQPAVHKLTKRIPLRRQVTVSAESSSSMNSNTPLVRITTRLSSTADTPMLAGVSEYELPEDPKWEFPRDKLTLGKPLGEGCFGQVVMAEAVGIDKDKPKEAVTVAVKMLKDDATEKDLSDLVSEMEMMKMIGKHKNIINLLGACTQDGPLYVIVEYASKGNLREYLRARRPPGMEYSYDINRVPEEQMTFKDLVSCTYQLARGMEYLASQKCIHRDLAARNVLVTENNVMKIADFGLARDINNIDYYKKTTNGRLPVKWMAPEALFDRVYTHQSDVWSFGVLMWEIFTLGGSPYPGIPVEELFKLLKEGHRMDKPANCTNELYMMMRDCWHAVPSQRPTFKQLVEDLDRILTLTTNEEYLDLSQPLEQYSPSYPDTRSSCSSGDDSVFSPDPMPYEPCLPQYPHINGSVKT

SMILES	IC50 [1, 3] [nM]	IC50 [2] [nM]	IC50 ([1]; SNU-16 cells) [nM]
C=C(C)C(=O)Nc1ccc(-c2c(C3=CC[C@@H](C(=O)N4CCC[C@H]4C4CC4)CC3)c3c(N)ncnc3n2C)cc1 [Example 1056]	≤ 100	250 to 1000	
C=C(C)C(=O)Nc1ccc(-c2c(-c3ccc(Oc4nccc(C)n4)c(F)c3)c3c(O)ncnc3n2C)cc1 [Example 1057]	≤ 100	< 100	
C=C(C)C(=O)Nc1ccc(-c2c(C3=CC[C@H](C(=O)N4CCC[C@@H]4C4CC4)CC3)c3c(N)ncnc3n2C)cc1 [Example 1058]	1000 to 100000	1000 to 100000	
C=C(C)C(=O)Nc1ccc(-c2c(C3=CC[C@H](C(=O)N4CCC[C@H]4C4CC4)CC3)c3c(N)ncnc3n2C)cc1 [Example 1059]	1000 to 100000	1000 to 100000	
C=C1CCN(c2ccc(-c3c(-c4ccc(Oc5nccc(C)n5)cc4)c4c(N)ncnc4n3C)cc2)C1=O [Example 1060]	1000 to 100000	1000 to 100000	
CC1=CCN(c2ccc(-c3c(-c4ccc(Oc5nccc(C)n5)cc4)c4c(N)ncnc4n3C)cc2)C1=O [Example 1061]		< 100	≤ 100
C#Cc1ncc(-c2c(-c3ccc(Oc4nccc(C)n4)cc3)c3c(N)ncnc3n2C)c(C)n1 [Example 1062]	1000 to 100000	1000 to 100000	
C=Cc1ncc(-c2c(-c3ccc(Oc4nccc(C)n4)cc3)c3c(N)ncnc3n2C)c(C)n1 [Example 1063]	≤ 100	< 100	
C=C(C)C(=O)Nc1ccc(-c2c(-c3ccc(Oc4nccc(C)n4)cc3)c3c(N)ncnc3n2C)c(Cl)c1C [Example 1064]	≤ 100	< 100	
C=C(C)C(=O)Nc1cc(-c2c(-c3ccc(Oc4nccc(C)n4)cc3)c3c(N)ncnc3n2C)n(C)n1 [Example 1065]	250 to 1000	250 to 1000	
C=C(C)C(=O)Nc1cc(C)c(-c2c(-c3ccc(Oc4nccc(C)n4)cc3)c3c(N)ncnc3n2C)cc1F [Example 1066]	≤ 100	< 100	
C#Cc1ccc(-c2c(-c3ccc(Oc4nccc(C)n4)cc3)c3c(N)ncnc3n2C)cn1 [Example 1067]	≤ 100	< 100	
C=C(C)C(=O)Nc1ccc(-c2c(-c3ccc(Oc4nccc(C)n4)c(F)c3)c3c(C)ncnc3n2C)cc1 [Example 1068]	≤ 100	< 100	
C=C(C)C(=O)Nc1cc(Cl)c(-c2c(-c3ccc(Oc4nccc(C)n4)cc3)c3c(N)ncnc3n2C)cc1C [Example 1069]	250 to 1000	250 to 1000	
CC#Cc1ncc(-c2c(-c3ccc(Oc4nccc(C)n4)cc3)c3c(N)ncnc3n2C)cn1 [Example 1070]	≤ 100	< 100	
C=C(C)C(=O)Nc1ccc(-c2c(-c3ccc(Oc4nccc(C)n4)cc3)c3c(N)ncnc3n2C)c(C)c1Cl [Example 1071]	≤ 100	250 to 1000	
C=C(C)C(=O)Nc1cnn(C)c1-c1c(-c2ccc(Oc3nccc(C)n3)cc2)c2c(N)ncnc2n1C [Example 1072]	250 to 1000	250 to 1000	
C#Cc1cc(C)c(-c2c(-c3ccc(Oc4nccc(C)n4)cc3)c3c(N)ncnc3n2C)cn1 [Example 1073]	1000 to 100000	1000 to 100000	
C=CC(=O)Nc1ccc(-c2c(-c3ccc(C(=O)NC4CCC4)c(OC)c3)c3c(N)ncnc3n2C)cc1 [Example 1074]	≤ 100	< 100	
C=C1CCN(c2ccc(-c3c(-c4ccc(Oc5nccc(C)n5)cc4)c4c(N)ncnc4n3C)cn2)C1=O [Example 1077]	≤ 100	< 100	

SMILES	IC50 [1, 3] [nM]	IC50 [2] [nM]	IC50 ([1]; SNU-16 cells) [nM]
CC1=CCN(c2ccc(-c3c(-c4ccc(Oc5nccc(C)n5)cc4)c4c(N)ncnc4n3C)cn2)C1=O [Example 1078]	≤ 100	< 100	
C=C(C)C(=O)Nc1cccc(-c2[nH]c3ncnc(N)c3c2-c2ccc(C(=O)NCC3(F)COC3)cc2)c1 [Example 1079]	≤ 100	< 100	
C=CC(=O)N1CC=C(c2cccc(-c3c(-c4ccc(Oc5cccc(C)n5)cc4)c4c(N)ncnc4n3C)c2)C1 [Example 1080]	1000 to 100000	1000 to 100000	
C#Cc1ncc(-c2c(-c3ccc(Oc4nccc(C)n4)cc3)c3c(N)ncnc3n2C)cc1F [Example 1081]	250 to 1000	250 to 1000	
C=CC(=O)Nc1ccccc1-c1c(-c2ccc(Oc3cccc(C)n3)cc2)c2c(N)ncnc2n1C [Example 1082]	≤ 100	< 100	
C=CC(=O)Nc1ccc(-c2c(-c3ccc(Oc4nccc(C)n4)c(C)c3)c3c(N)ncnc3n2C)c(C)c1 [Example 1083]	1000 to 100000	250 to 1000	
Cc1ccnc(Oc2ccc(-c3c(-c4ccc(N5C(=O)C=CC5=O)cc4)n(C)c4ncnc(N)c34)cc2)n1 [Example 1084]	≤ 100	< 100	
C#Cc1ccc(-c2c(-c3ccc(Oc4nccc(C)n4)cc3)c3c(N)ncnc3n2C)c(C)n1 [Example 1085]	1000 to 100000	1000 to 100000	
C=C(C)C(=O)Nc1cnc(-c2c(-c3ccc(Oc4cccc(C)n4)c(F)c3)c3c(N)ncnc3n2C)c(F)c1 [Example 1086]	≤ 100	< 100	
C=C1CCCN(c2ccc(-c3c(-c4ccc(Oc5nccc(C)n5)cc4)c4c(N)ncnc4n3C)cc2)C1=O [Example 1087]	≤ 100	< 100	
C=C1C(=O)N(c2ccc(-c3c(-c4ccc(Oc5nccc(C)n5)cc4)c4c(N)ncnc4n3C)cc2)CC1(C)C [Example 1088]	250 to 1000	1000 to 100000	
C=C(C)C(=O)Nc1ccc(-c2c(-c3ccc(Oc4nccc(C)n4)cc3)c3c(N)ncnc3n2C)c(Cl)c1F [Example 1089]	1000 to 100000	1000 to 100000	
CC1=CCCN(c2ccc(-c3c(-c4ccc(Oc5nccc(C)n5)cc4)c4c(N)ncnc4n3C)cc2)C1=O [Example 1090]	≤ 100	< 100	
C=C(C)C(=O)Nc1cc(C)c(-c2c(-c3ccc(Oc4cccc(C)n4)c(F)c3)c3c(N)ncnc3n2C)cn1 [Example 1091]	1000 to 100000	1000 to 100000	
C=CC(=O)Nc1ccc(-c2c(-c3ccc(Oc4nccc(C)n4)cc3)c3c(N)ncnc3n2C)c(C)c1 [Example 1092]	≤ 100	< 100	
C=C(C)C(=O)Nc1ccc(-c2c(-c3ccc(Oc4nccc(C)n4)c(F)c3)c3c(C)ncnc3n2C)c(Cl)c1 [Example 1093]	≤ 100	< 100	
C=CC(=O)Nc1ccc(-c2c(-c3ccc(Oc4nccc(C)n4)c(F)c3)c3c(C)ncnc3n2C)c(Cl)c1 [Example 1094]	≤ 100	< 100	
C=C(C)C(=O)Nc1cnc(-c2c(-c3ccc(Oc4cccc(C)n4)c(F)c3)c3c(N)ncnc3n2C)c(C)c1 [Example 1095]	≤ 100	< 100	
C=C1CCN(c2ccc(-c3c(-c4ccc(Oc5nccc(C)n5)cc4)c4c(N)ncnc4n3C)c(C)c2)C1=O [Example 1096]	≤ 100	< 100	
C=C(C)C(=O)Nc1cc(C)c(-c2c(-c3ccc(Oc4nccc(C)n4)cc3)c3c(N)ncnc3n2C)c(F)c1 [Example 1097]	≤ 100	< 100	

SMILES	IC50 [1, 3] [nM]	IC50 [2] [nM]	IC50 ([1]; SNU-16 cells) [nM]
C=CC(=O)Nc1cc(-c2c(-c3ccc(Oc4cccc(C)n4)cc3)c3c(N)ncnc3n2C)n(C)n1 [Example 1098]	≤ 100	< 100	
C=C(C)C(=O)Nc1ccc(-c2c(-c3ccc(Oc4cccc(C)n4)c(F)c3)c3c(N)ncnc3n2C)c(C)n1 [Example 1103]	≤ 100	< 100	
C=CC(=O)Nc1ccc(-c2c(-c3ccc(Oc4nccc(C)n4)cc3)c3c(C)ncnc3n2C)c(C)c1 [Example 1104]	≤ 100	< 100	
C=CC(=O)Nc1ccc(-c2c(-c3ccc(Oc4nccc(C)n4)c(F)c3)c3c(C)ncnc3n2C)c(C)c1 [Example 1105]	≤ 100	< 100	
C=CC(=O)Nc1cc(-c2c(-c3ccc(Oc4nccc(C)n4)cc3)c3c(N)ncnc3n2C)n(C)n1 [Example 1108]	≤ 100	< 100	
C=C1CN(c2ccc(-c3c(-c4ccc(Oc5nccc(C)n5)cc4)c4c(N)ncnc4n3C)cc2)C1=O [Example 1109]	≤ 100	< 100	
C=C1CCN(c2ccc(-c3c(-c4ccc(Oc5nccc(C)n5)c(F)c4)c4c(N)ncnc4n3C)cc2)C1=O [Example 1110]	≤ 100	< 100	
C#Cc1cc(C)c(-c2c(C3=CC[C@H](C(=O)N4CCCC4)CC3)c3c(N)ncnc3n2C)cn1 [Example 1111]	≤ 100	< 100	
C=CC(=O)Nc1ccc(-c2c(-c3ccc(Oc4nccc(C)n4)c(F)c3)c3c(N)ncnc3n2C)cc1 [Example 1112]	≤ 100	< 100	
C=C1C[C@@H](C)N(c2ccc(-c3c(-c4ccc(Oc5nccc(C)n5)cc4)c4c(N)ncnc4n3C)cc2)C1=O [Example 1113]	≤ 100	< 100	
CC1=C[C@@H](C)N(c2ccc(-c3c(-c4ccc(Oc5nccc(C)n5)cc4)c4c(N)ncnc4n3C)cc2)C1=O [Example 1114]	≤ 100	250 to 1000	
C=C(C)C(=O)Nc1ccc(-c2c(C3=CC[C@@H](S(=O)(=O)N4CCCC4)CC3)c3c(N)ncnc3n2C)c(C)c1 [Example 1115]	1000 to 100000	1000 to 100000	
C=C(C)C(=O)Nc1ccc(-c2c(C3=CC[C@H](S(=O)(=O)N4CCCC4)CC3)c3c(N)ncnc3n2C)c(C)c1 [Example 1116]	≤ 100	100 to 250	
C#Cc1ncc(-c2c(-c3ccc(Oc4nccc(C)n4)cc3)c3c(N)ncnc3n2C)cn1 [Example 1117]		100 to 250	≤ 100
CC1=C[C@H](C)N(c2ccc(-c3c(-c4ccc(Oc5nccc(C)n5)cc4)c4c(N)ncnc4n3C)cc2)C1=O [Example 1118]	≤ 100	< 100	
C#Cc1cc(C)c(-c2c(-c3ccc(Oc4nccc(C)n4)c(F)c3)c3c(N)ncnc3n2C)cn1 [Example 1119]		1000 to 100000	250 to 1000
C=CC(=O)Nc1ccc(-c2c(-c3ccc(O)cc3)c3c(N)ncnc3n2C)cc1 [Example 1120]	≤ 100	< 100	
Cc1cccc(Oc2ccc(-c3c(-c4cccc(NC#N)c4)n(C)c4ncnc(N)c34)cc2)n1 [Example 1121]	≤ 100	< 100	
C=C(C)C(=O)Nc1ccc(-c2c(-c3ccc(-c4nnc(C)o4)cc3)c3c(N)ncnc3n2C)cc1 [Example 1123]	250 to 1000	1000 to 100000	
